Molecules are shown by their SMILES. Several values for one entry are separate records, joined by “and”; a condition that tells them apart may be missing. Identical values can stand only once.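 Cells were grown in 96-well plates and exposed to each compound for 48 hours at five concentrations; endpoints were interpolated linearly between bracketing concentrations, or set to the highest concentration if not reached. GI50 = concentration required for 50% inhibition of growth. TGI: concentration producing complete growth inhibition.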

One test concerns NCI-H460 lung. The test can be described thus: inhibition of tumour cell growth, NCI panel, 48 h.
As to `c1cnn2ncc(-c3ccnc(Nc4ccc5c(c4)OCCO5)n3)c2c1`, the GI50 was 0.0731 µM and the TGI is 0.258 µM.

Regarding `Cc1ccc(-n2nc(C(C)(C)C)cc2NC(=O)NCc2cc(F)ccc2Oc2ccc3c(cnn3CCO)c2)cc1`, the GI50 is > 10 µM and 4.85 µM; the TGI was > 59.7 µM.

The molecule `COc1ccc2[nH]c(-c3ccc(O)cc3)cc(=O)c2c1` gave a TGI of 9.35 µM.

In turn, `COc1ccc2c(NCCCCCCNc3c4ccccc4nc4cc(OC)ccc34)c3ccccc3nc2c1` gave a TGI of 1.1 µM.

Turning to `O=C1c2cccc3cccc(c23)C(=O)N1O`, the TGI is > 100 µM.

As for `O=C(O)c1ccccc1C(=O)c1ccc2c(c1)Cc1ccccc1-2`, the TGI is > 100 µM.

In turn, `C=CC1=C(C)C2=NC1=CC1=NC(=CC3=C(C)C4=C(O)[C@H](C(=O)OC)C(=C5NC(=C2)[C@@H](C)[C@@H]5CCC(=O)O)C4=N3)C(CC)=C1C` returned a TGI of 13.8 µM.

As for `COc1ccc(Nc2nccc(N3CCN(c4c5ccc(Cl)cc5nc5ccc(OC)cc45)CC3)n2)cc1`, the GI50 is 8.13 µM and the TGI was > 100 µM.

For the molecule `CC(=Nc1ccc(S(N)(=O)=O)cc1)c1c(O)[nH]c2ccccc12`, the GI50 is > 23.9 µM and the TGI is > 25 µM.

With `CCn1c(-c2nonc2N)nc2ccncc21`, the GI50 is > 25 µM and the TGI is > 25 µM.

In the case of `CC(C)[O-].CC(C)[O-].CN(CCN(C)Cc1cc(F)cc(F)c1[O-])Cc1cc(F)cc(F)c1[O-].[Ti+4]`, the GI50 was 0.575 µM and the TGI stood at 2.83 µM.

As for `O=C1/C(=C/c2ccc([N+](=O)[O-])cc2)COc2ccc(O)cc21`, the GI50 is 9.03 µM and the TGI is > 100 µM.

As to `CC(C)Oc1ccc(C(=O)Cn2ccnc2)cc1-n1c(CN2CCN(C(=O)COc3ccc(Cl)cc3)CC2)nc2ccccc2c1=O`, the GI50 is 16.8 µM and the TGI came to 33.7 µM.

Consider `COc1cccc(COc2cc(-n3cnc4ccccc43)sc2C(N)=O)c1`, for which the GI50 was 9.23 µM and the TGI is > 25 µM.

Turning to `CCN(CC)c1ccc(/C=C/C2=[N+](C)c3ccccc3C2(C)C)c(C)c1`, the GI50 is < 0.0222 µM and the TGI was determined as 1.3 µM.

`Fc1ccc2nc(-c3cc(-c4ccc5c(c4)OCO5)n[nH]3)[nH]c2c1`: the GI50 is 4.22 µM and the TGI was > 40.2 µM.

A further test deals with HS 578T breast. The test can be described thus: inhibition of tumour cell growth, NCI panel, 48 h.
With `c1cnn2ncc(-c3ccnc(Nc4ccc5c(c4)OCCO5)n3)c2c1`, the GI50 is 0.0747 µM and the TGI was determined as 0.323 µM.

For `Cc1ccc(-n2nc(C(C)(C)C)cc2NC(=O)NCc2cc(F)ccc2Oc2ccc3c(cnn3CCO)c2)cc1`, the GI50 is > 10 µM and 10.1 µM; the TGI is > 100 µM.

For `COc1ccc2[nH]c(-c3ccc(O)cc3)cc(=O)c2c1`, the TGI was > 100 µM.

`COc1ccc2c(NCCCCCCNc3c4ccccc4nc4cc(OC)ccc34)c3ccccc3nc2c1` came in with a TGI of 0.937 µM.

For `O=C1c2cccc3cccc(c23)C(=O)N1O`, the TGI was > 100 µM.

As to `O=C(O)c1ccccc1C(=O)c1ccc2c(c1)Cc1ccccc1-2`, the TGI was > 100 µM.

With `C=CC1=C(C)C2=NC1=CC1=NC(=CC3=C(C)C4=C(O)[C@H](C(=O)OC)C(=C5NC(=C2)[C@@H](C)[C@@H]5CCC(=O)O)C4=N3)C(CC)=C1C`, the TGI is > 100 µM.

`COc1ccc(Nc2nccc(N3CCN(c4c5ccc(Cl)cc5nc5ccc(OC)cc45)CC3)n2)cc1`: the GI50 was 5.78 µM and the TGI was > 100 µM.

For the molecule `CC(=Nc1ccc(S(N)(=O)=O)cc1)c1c(O)[nH]c2ccccc12`, the GI50 was > 25 µM and the TGI was > 25 µM.

Regarding `CCn1c(-c2nonc2N)nc2ccncc21`, the GI50 is > 25 µM and the TGI is > 25 µM.

With `CC(C)[O-].CC(C)[O-].CN(CCN(C)Cc1cc(F)cc(F)c1[O-])Cc1cc(F)cc(F)c1[O-].[Ti+4]`, the GI50 is 1.62 µM and the TGI came to 6.22 µM.

Regarding `O=C1/C(=C/c2ccc([N+](=O)[O-])cc2)COc2ccc(O)cc21`, the GI50 was 3.54 µM and the TGI is > 100 µM.

Turning to `CC(C)Oc1ccc(C(=O)Cn2ccnc2)cc1-n1c(CN2CCN(C(=O)COc3ccc(Cl)cc3)CC2)nc2ccccc2c1=O`, the GI50 is 15.8 µM and the TGI stood at 46.6 µM.

`COc1cccc(COc2cc(-n3cnc4ccccc43)sc2C(N)=O)c1`: the GI50 was > 17.7 µM and the TGI is > 25 µM.

For `CCN(CC)c1ccc(/C=C/C2=[N+](C)c3ccccc3C2(C)C)c(C)c1`, the GI50 was 0.129 µM and the TGI came out at 16.5 µM.

As to `Fc1ccc2nc(-c3cc(-c4ccc5c(c4)OCO5)n[nH]3)[nH]c2c1`, the GI50 was 9.53 µM and the TGI is > 100 µM.

The next test relates to RXF 393 renal. Briefly: inhibition of tumour cell growth, NCI panel, 48 h.
With `c1cnn2ncc(-c3ccnc(Nc4ccc5c(c4)OCCO5)n3)c2c1`, the GI50 was 0.0535 µM and the TGI amounted to 0.137 µM.

Turning to `Cc1ccc(-n2nc(C(C)(C)C)cc2NC(=O)NCc2cc(F)ccc2Oc2ccc3c(cnn3CCO)c2)cc1`, the GI50 was 7.04 µM and 4.64 µM; the TGI is > 10 µM and 23.7 µM.

Take `COc1ccc2[nH]c(-c3ccc(O)cc3)cc(=O)c2c1`: the TGI is 5.16 µM.

For the molecule `COc1ccc2c(NCCCCCCNc3c4ccccc4nc4cc(OC)ccc34)c3ccccc3nc2c1`, the TGI came to 0.483 µM.

The molecule `O=C1c2cccc3cccc(c23)C(=O)N1O` registered a TGI of 68.5 µM.

Consider `O=C(O)c1ccccc1C(=O)c1ccc2c(c1)Cc1ccccc1-2`, for which the TGI was > 100 µM.

Take `C=CC1=C(C)C2=NC1=CC1=NC(=CC3=C(C)C4=C(O)[C@H](C(=O)OC)C(=C5NC(=C2)[C@@H](C)[C@@H]5CCC(=O)O)C4=N3)C(CC)=C1C`: the TGI was determined as 9.1 µM.

Take `COc1ccc(Nc2nccc(N3CCN(c4c5ccc(Cl)cc5nc5ccc(OC)cc45)CC3)n2)cc1`: the GI50 was 1.78 µM and the TGI is 6.8 µM.

For `CC(=Nc1ccc(S(N)(=O)=O)cc1)c1c(O)[nH]c2ccccc12`, the GI50 is > 25 µM and the TGI was > 25 µM.

Regarding `CCn1c(-c2nonc2N)nc2ccncc21`, the GI50 is > 25 µM and the TGI was > 25 µM.

Take `CC(C)[O-].CC(C)[O-].CN(CCN(C)Cc1cc(F)cc(F)c1[O-])Cc1cc(F)cc(F)c1[O-].[Ti+4]`: the GI50 is 0.357 µM and the TGI amounted to 1.31 µM.

As to `O=C1/C(=C/c2ccc([N+](=O)[O-])cc2)COc2ccc(O)cc21`, the GI50 is 2.45 µM and the TGI was 17.7 µM.

In the case of `CC(C)Oc1ccc(C(=O)Cn2ccnc2)cc1-n1c(CN2CCN(C(=O)COc3ccc(Cl)cc3)CC2)nc2ccccc2c1=O`, the GI50 was 7.48 µM and the TGI was 22.2 µM.

Take `COc1cccc(COc2cc(-n3cnc4ccccc43)sc2C(N)=O)c1`: the GI50 is 5.69 µM and the TGI was > 25 µM.

Turning to `CCN(CC)c1ccc(/C=C/C2=[N+](C)c3ccccc3C2(C)C)c(C)c1`, the GI50 is 0.0837 µM and the TGI came out at 2.85 µM.

Consider `Fc1ccc2nc(-c3cc(-c4ccc5c(c4)OCO5)n[nH]3)[nH]c2c1`, for which the GI50 was 2.81 µM and the TGI amounted to 32.1 µM.

The subject of another test is UACC-62 melanoma. The test can be described thus: inhibition of tumour cell growth, NCI panel, 48 h.
For `c1cnn2ncc(-c3ccnc(Nc4ccc5c(c4)OCCO5)n3)c2c1`, the GI50 is 0.0475 µM and the TGI amounted to 0.113 µM.

Take `Cc1ccc(-n2nc(C(C)(C)C)cc2NC(=O)NCc2cc(F)ccc2Oc2ccc3c(cnn3CCO)c2)cc1`: the GI50 is 0.667 µM and the TGI was > 39.8 µM.

In the case of `COc1ccc2[nH]c(-c3ccc(O)cc3)cc(=O)c2c1`, the TGI came to 38.9 µM.

In the case of `COc1ccc2c(NCCCCCCNc3c4ccccc4nc4cc(OC)ccc34)c3ccccc3nc2c1`, the TGI turned out to be 1.59 µM.

`O=C1c2cccc3cccc(c23)C(=O)N1O`: the TGI is > 100 µM.

For `O=C(O)c1ccccc1C(=O)c1ccc2c(c1)Cc1ccccc1-2`, the TGI is > 100 µM.

For the molecule `C=CC1=C(C)C2=NC1=CC1=NC(=CC3=C(C)C4=C(O)[C@H](C(=O)OC)C(=C5NC(=C2)[C@@H](C)[C@@H]5CCC(=O)O)C4=N3)C(CC)=C1C`, the TGI came to 7.99 µM.

For `COc1ccc(Nc2nccc(N3CCN(c4c5ccc(Cl)cc5nc5ccc(OC)cc45)CC3)n2)cc1`, the GI50 was 16.8 µM and the TGI was > 100 µM.

As to `CC(=Nc1ccc(S(N)(=O)=O)cc1)c1c(O)[nH]c2ccccc12`, the GI50 was > 25 µM and the TGI is > 25 µM.

For the molecule `CCn1c(-c2nonc2N)nc2ccncc21`, the GI50 is > 25 µM and the TGI was > 25 µM.

With `CC(C)[O-].CC(C)[O-].CN(CCN(C)Cc1cc(F)cc(F)c1[O-])Cc1cc(F)cc(F)c1[O-].[Ti+4]`, the GI50 is 1.26 µM and the TGI was found to be 3.09 µM.

`O=C1/C(=C/c2ccc([N+](=O)[O-])cc2)COc2ccc(O)cc21`: the GI50 was 9.02 µM and the TGI is 34.5 µM.

As to `CC(C)Oc1ccc(C(=O)Cn2ccnc2)cc1-n1c(CN2CCN(C(=O)COc3ccc(Cl)cc3)CC2)nc2ccccc2c1=O`, the GI50 was 12.8 µM and the TGI worked out at 28.9 µM.

For the molecule `COc1cccc(COc2cc(-n3cnc4ccccc43)sc2C(N)=O)c1`, the GI50 is 18.1 µM and the TGI is > 25 µM.

For the molecule `CCN(CC)c1ccc(/C=C/C2=[N+](C)c3ccccc3C2(C)C)c(C)c1`, the GI50 was 0.0998 µM and the TGI is 2.14 µM.

As for `Fc1ccc2nc(-c3cc(-c4ccc5c(c4)OCO5)n[nH]3)[nH]c2c1`, the GI50 was 4.37 µM and the TGI is > 52.2 µM.

The next test has as its system TK-10 renal. The test can be described thus: inhibition of tumour cell growth, NCI panel, 48 h.
As for `c1cnn2ncc(-c3ccnc(Nc4ccc5c(c4)OCCO5)n3)c2c1`, the GI50 is 0.0685 µM and the TGI came to 0.224 µM.

Turning to `Cc1ccc(-n2nc(C(C)(C)C)cc2NC(=O)NCc2cc(F)ccc2Oc2ccc3c(cnn3CCO)c2)cc1`, the GI50 was > 10 µM and 10.8 µM; the TGI was > 91.9 µM.

`COc1ccc2[nH]c(-c3ccc(O)cc3)cc(=O)c2c1`: the TGI was > 89.7 µM.

`COc1ccc2c(NCCCCCCNc3c4ccccc4nc4cc(OC)ccc34)c3ccccc3nc2c1` returned a TGI of 4.56 µM.

Turning to `O=C1c2cccc3cccc(c23)C(=O)N1O`, the TGI is > 100 µM.

Take `O=C(O)c1ccccc1C(=O)c1ccc2c(c1)Cc1ccccc1-2`: the TGI was > 100 µM.

With `C=CC1=C(C)C2=NC1=CC1=NC(=CC3=C(C)C4=C(O)[C@H](C(=O)OC)C(=C5NC(=C2)[C@@H](C)[C@@H]5CCC(=O)O)C4=N3)C(CC)=C1C`, the TGI is 25.5 µM.

With `COc1ccc(Nc2nccc(N3CCN(c4c5ccc(Cl)cc5nc5ccc(OC)cc45)CC3)n2)cc1`, the GI50 is 11.5 µM and the TGI was > 100 µM.

Take `CC(=Nc1ccc(S(N)(=O)=O)cc1)c1c(O)[nH]c2ccccc12`: the GI50 is > 25 µM and the TGI is > 25 µM.

In the case of `CCn1c(-c2nonc2N)nc2ccncc21`, the GI50 was > 25 µM and the TGI was > 25 µM.

On to `CC(C)[O-].CC(C)[O-].CN(CCN(C)Cc1cc(F)cc(F)c1[O-])Cc1cc(F)cc(F)c1[O-].[Ti+4]`, for which the GI50 is 1.42 µM and the TGI came to 7.26 µM.

With `O=C1/C(=C/c2ccc([N+](=O)[O-])cc2)COc2ccc(O)cc21`, the GI50 is 26.2 µM and the TGI was > 100 µM.

For `CC(C)Oc1ccc(C(=O)Cn2ccnc2)cc1-n1c(CN2CCN(C(=O)COc3ccc(Cl)cc3)CC2)nc2ccccc2c1=O`, the GI50 is 12.8 µM and the TGI was > 74.4 µM.

Turning to `COc1cccc(COc2cc(-n3cnc4ccccc43)sc2C(N)=O)c1`, the GI50 was > 25 µM and the TGI is > 25 µM.

On to `CCN(CC)c1ccc(/C=C/C2=[N+](C)c3ccccc3C2(C)C)c(C)c1`, for which the GI50 was 0.0779 µM and the TGI was determined as 5.3 µM.

Consider `Fc1ccc2nc(-c3cc(-c4ccc5c(c4)OCO5)n[nH]3)[nH]c2c1`, for which the GI50 was 7.3 µM and the TGI was > 45.1 µM.

(Values after PubChem BioAssay (NCI).)
